Data from ChEMBL document CHEMBL1201862, “PubChem BioAssay data set” (2004).
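Results reflect a 48-hour exposure of cells in 96-well plates to compound at five concentrations. GI50 = concentration required for 50% inhibition of growth.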 The source made the active and inactive calls. Rule as the data show it: active = GI50 up to about 1.1 µM and inactive = higher.

Legend:
Assay in all cases: growth of human tumour cells (NCI), 48 h
[1] = test system: BT-549
[2] = test system: EKVX
[3] = test system: OVCAR-3
[4] = test system: T47D
[5] = test system: MDA-MB-231
[6] = test system: HOP-62
[7] = test system: OVCAR-4
[8] = test system: HOP-92
[9] = test system: NCI-H226
[10] = test system: NCI-H460
[11] = test system: SK-MEL-5
[12] = test system: CAKI-1
[13] = test system: U-251
[14] = test system: PC-3
[15] = test system: ACHN
[16] = test system: A549
[17] = test system: SK-MEL-2
[18] = test system: SK-MEL-28
[19] = test system: SK-OV-3
[20] = test system: DU-145
[21] = test system: MDA-N
[22] = test system: M14
[23] = test system: OVCAR-5
[24] = test system: NCI/ADR-RES
[25] = test system: Malme-3M
[26] = test system: UACC-62
[27] = test system: 786-0
[28] = test system: A498
[29] = test system: MDA-MB-435
[30] = test system: COLO 205
[31] = test system: UACC-257
[32] = test system: TK-10
[33] = test system: SNB-19
[34] = test system: HCT-15
[35] = test system: NCI-H23
[36] = test system: SN12C
[37] = test system: K562
[38] = test system: HCC 2998
[39] = test system: SF-268
[40] = test system: RPMI-8226
[41] = test system: UO-31
[42] = test system: MCF7
[43] = test system: SNB-75
[44] = test system: KM12
[45] = test system: NCI-H522
[46] = test system: HCT-116
[47] = test system: SF-295
[48] = test system: SR
[49] = test system: SF-539
[50] = test system: IGROV-1
[51] = test system: OVCAR-8
[52] = test system: RXF 393
[53] = test system: LOX IMVI
[54] = test system: HL-60
[55] = test system: CCRF-CEM
[56] = test system: MOLT-4
[57] = test system: SW-620
[58] = test system: HT-29

Measured: GI50

COC(=O)c1cc(C(=O)OC)cc(-c2ccc3c(c2)-c2nc4c(c(-c5ccc(OC)cc5)c2CC3)CCc2ccc(-c3cc(C(=O)OC)cc(C(=O)OC)c3)cc2-4)c1
> 100 µM: [34]
active: [37] 0.061 µM
inactive: [1] > 100 µM | [2] 16.9 µM | [3] > 100 µM | [4] > 100 µM | [5] > 100 µM | [6] > 100 µM | [7] > 100 µM | [8] > 100 µM | [9] > 100 µM | [10] > 100 µM | [11] > 100 µM | [12] > 100 µM | [13] > 100 µM | [14] > 100 µM | [15] > 100 µM | [16] > 100 µM | [17] > 100 µM | [18] > 100 µM | [19] > 100 µM | [20] > 100 µM | [21] > 100 µM | [22] > 100 µM | [23] 16 µM | [24] > 100 µM | [25] > 100 µM | [26] > 100 µM | [27] > 100 µM | [28] > 100 µM | [29] > 100 µM | [30] > 100 µM | [31] > 100 µM | [32] > 100 µM | [33] > 100 µM | [35] > 100 µM | [36] > 100 µM | [38] > 100 µM | [39] > 100 µM | [40] > 100 µM | [41] > 100 µM | [42] > 100 µM | [43] > 100 µM | [44] > 100 µM | [45] > 100 µM | [46] > 100 µM | [47] > 100 µM

O=C(O)Cc1c[nH]c2ccc(F)cc12
inactive: [1] > 100 µM | [48] > 100 µM | [2] > 100 µM | [3] > 100 µM | [4] > 100 µM | [49] > 100 µM | [50] > 100 µM | [5] > 100 µM | [6] > 100 µM | [7] > 100 µM | [8] > 100 µM | [9] > 100 µM | [10] > 100 µM | [11] > 100 µM | [51] > 100 µM | [12] > 100 µM | [13] > 100 µM | [14] > 100 µM | [15] > 100 µM | [16] > 100 µM | [52] > 100 µM | [17] > 100 µM | [18] > 100 µM | [53] > 100 µM | [19] > 100 µM | [20] > 100 µM | [21] > 100 µM | [54] > 100 µM | [22] > 100 µM | [23] > 100 µM | [24] > 100 µM | [26] > 100 µM | [27] > 100 µM | [28] > 100 µM | [29] > 100 µM | [55] > 100 µM | [30] > 100 µM | [56] > 100 µM | [31] > 100 µM | [57] > 100 µM | [32] > 100 µM | [58] > 100 µM | [33] > 100 µM | [35] > 100 µM | [36] > 100 µM | [37] > 100 µM | [38] > 100 µM | [40] > 100 µM | [41] > 100 µM | [42] > 100 µM | [43] > 100 µM | [44] > 100 µM | [46] > 100 µM | [47] > 100 µM
> 100 µM: [34]
